Reference: paper PMC12606464, “Investigating NFE2L1 activators for targeted protein aggregate clearance: a follow-up study” (RSC Medicinal Chemistry, 2025)

System: ubiquitin-proteasome system
Assay: Ub-G76V-GFP reporter degradation in U2OS cells
Assay type: cell-based
Settings: U2OS cells, Fig. S3
Excerpt: We next examined whether the selected RUN compounds activate the NFE2L1 pathway in a stress-independent manner, while preserving normal ubiquitin-dependent proteasomal degradation. This distinction is crucial, as the therapeutic benefit of NFE2L1 activation lies in its ability to alleviate proteotoxic stress and target disease-related proteins for degradation without compromising normal proteostasis. To assess this, U2OS cells stably expressing the short-lived fluorescent reporter Ub-G76V-GFP were treated with various concentrations of RUN compounds. […] We also examined whether compound-induced activation of NFE2L1 could be attributed to the generation of reactive oxygen species (ROS). To test this, the 3×PSMA4-ARE-LUC reporter assay was performed in the presence or absence of the antioxidant N-acetyl-L-cysteine (NAC). A decrease in reporter activity upon NAC treatment would indicate pathway activation through oxidative stress.
RUN compound (5 µM) for 8 hours. Fluorescence intensity was normalized to cell viability (measured by the alamarBlue assay) and compared to vehicle control (DMSO). Unlike the […]
as means ± SD from three independent experiments (n = 3). Statistical analysis was performed using a multiple unpaired t-test with Welch’s correction, with adjustment for multiple comparisons by the Holm–Šídák method (α = 0.05). ****p<0.0001. Detailed results of the analysis are shown in Supplementary Table S14. […]
2.4 Monitoring protein degradation using UbG76V-GFP reporter cells
U2OS cells stably expressing the Ub-G76V-GFP reporter were seeded into 96-well plates at and cultured overnight under standard conditions. On the following day, cells were treated with the indicated test compounds or DMSO vehicle control for 8 hours. After treatment, GFP fluorescence intensity was measured, providing a readout of proteasome-dependent degradation of the Ub-G76V-GFP substrate. Cell viability was then assessed in the same wells using the alamarBlue assay according to the manufacturer’s protocol. Viability values were used for normalization of fluorescence data to account for differences in cell number. Accumulation of GFP signal relative to DMSO-treated controls was interpreted as reduced degradation of UPS substrates, indicating potential effects of the compounds on the natural protein turnover.
Statistical comparison of RUN compounds with ASC-JM17 was performed using a multiple unpaired t-test with Welch’s correction, with adjustment for multiple comparisons by the Holm–Šídák method (α = 0.05) in GraphPad Prism (v 10.6.1). […]
RNA was extracted using […]
the RNeasy® Plus Micro Kit according to the manufacturer’s instructions. Complementary DNA (cDNA) was synthesized from RNA using either t he TATAA GrandScript cDNA Supermix (TATAA Biocenter) or the QuantiTect® Reverse Transcription Kit (Qiagen), following the respective protocols. Quantitative RT -PCR was performed on a LightCycler® 480 instrument (Roche Life Science) using the TATAA SYBR® Gr andMaster® Mix (TATAA […]
Biocenter). Gene expression levels were normalized to RPLP0, and relative expression was calculated using the ΔΔCt method. Data were expressed as fold change relative to the corresponding DMSO control. Statistical analysis of changes in gene expression was performed w ith a ratio paired t-test corrected for multiple comparisons using Holm-Šídák's method (α = 0.05) in GraphPad Prism (v 10.6.1).
Table S1. Sequences of primer pairs used in the qRT -PCR analysis of gene expression.

## COc1ccc(/C=C2\CC(N)C/C(=C\c3ccc(OC)c(OC)c3)C2=O)cc1OC (stereo not drawn) [RUN-81]
  Ub-G76V-GFP reporter assay, mean: 1.14

## COc1ccc(/C=C2\CC(NC(=O)C3CCCC3)C/C(=C\c3ccc(OC)c(OC)c3)C2=O)cc1OC (stereo not drawn) [RUN-89]
  Ub-G76V-GFP reporter assay, mean: 1.17

## COc1ccc(/C=C2\CC(NC(=O)c3ccccn3)C/C(=C\c3ccc(OC)c(OC)c3)C2=O)cc1OC (stereo not drawn) [RUN-94]
  Ub-G76V-GFP reporter assay, mean: 1.19
